Test results reported in US5750139A (priority 1994, dated 1998).
Read-outs that look alike come from different tables or passages of the source. Each block holds one molecule with its values, some of them ahead of it.

Tests used:
[1] = system: rat skin versus human skin; conditions: cited from earlier work
[2] = cited from earlier work
[3] = diffusion/dialysis of benzopyrone from formulation through cellulose membrane (layer thickness, pore size, viscosity); format: physicochemical
Text: When the same formulation was used, for example, the diffusion rate increased only by a factor of 1.6 when the pore volume was increased from 20 kD to 100 kD.

inflamed target tissues = conditions: in vivo
[4] = 96 h application of a TDS: bioavailability, blood levels of benzopyrone during application and after removal
rat skin = conditions: cited from earlier work
[5] = GCP-complying pharmacokinetic study of TDS with 14 healthy volunteers; format: in vivo, human
[6] = intra-individual pharmacokinetics, TDS versus oral tablet, one healthy volunteer; format: in vivo, human
Protocol: For better comparability, some pharmacokinetic preliminary experiments were carried out on one and the same healthy volunteer (i.e. intra-individually).

[7] = kinetics of active ingredient diffusion through the membrane in vitro; format: physicochemical
Protocol: The TDS to be tested were preselected by means of in vitro measurements of the dialysis of benzopyrone from the TDS investigated. For this purpose, the TDS available was stuck, on the side facing the skin, i.e. the membrane side, by means of the adhesive layer, in a dialysis apparatus and was dialyzed against an excess of a solution of polyethylene glycol 400 or against an albumin or saline solution for at least 24 h. […] The half-lives for a 50% and 95% diffusion yield (t/2 50% and t/2 95%, respectively) were calculated from the linear part of the dialysis curves. For example, three selected formulations gave the following half-lives (Table 1): […]

[8] = human, blood, topical or ocular, 200 mg
[9] = human, in vivo, topical or ocular

SMILES: COC1=CC(=O)C[C@@H](C)[C@]12Oc1c(Cl)c(OC)cc(OC)c1C2=O [griseofulvin]
- penetration of rat skin more readily than human skin [1]: 14 times

SMILES: O=C(O)[C@H]1O[C@@H](Oc2ccc3ccc(=O)oc3c2)[C@H](O)[C@@H](O)[C@@H]1O [glucuronide (III)]
- pharmacological activity ([2]; in vivo): pharmacologically inactive

- Amount of benzopyrone diffusing within 8 h ([3]; layer thickness 0.1 mm, 20% formulation, cellulose membrane 20 kD, 2.5 cm^2): 8 mg
- Amount of benzopyrone diffusing within 8 h ([3]; layer thickness 0.2 mm, 20% formulation, cellulose membrane 20 kD, 2.5 cm^2): 14 mg
- Amount of benzopyrone diffusing within 8 h ([3]; layer thickness 0.4 mm, 20% formulation, cellulose membrane 20 kD, 2.5 cm^2): 14 mg
- rate of dialysis of the benzopyrone ([3]; on increasing the viscosity of the formulation): considerably reduced
- factor of increase of the diffusion rate ([3]; pore volume increased from 20 kD to 100 kD, same formulation): 1.6
- release of benzopyrone over 96 h ([4]; TDS worn 4 days): takes place in a constant manner
- concentration at 3 h [4, 8]: 2.4 ng/mL
- concentration at 6 h [4, 8]: 0.8 ng/mL
- concentration at 48 h [4, 8]: 5.5 ng/mL
- concentration at 72 h [4, 8]: 6.1 ng/mL
- concentration at 82 h [4, 8]: 8.7 ng/mL
- concentration at 96 h [4, 8]: 6.6 ng/mL
- bioavailability at 96 h [4, 9]: 70%
- concentration at 4 h ([5]; human, blood, topical or ocular, 4 h after removal of the TDS (200 mg)): 4.96 ng/mL
- concentration at 3 h ([5]; human, blood, topical or ocular, single TDS 200 mg, application time 3 h): 23.4 ng/mL
- concentration at 24 h ([5]; human, blood, topical or ocular, single TDS 200 mg, application time 24 h): 27.3 ng/mL
- time to steady state of blood benzopyrone level ([5]; single TDS 200 mg): 3 h
- blood levels of benzopyrone (I), transdermal higher than after oral administration ([6]; TDS versus oral): 10 times
- maximum blood levels of (I), TDS higher than after oral, based on same dose absorbed per day ([6]; human, in vivo, po): 57 times
- Tmax ([6]; human, in vivo, po, t max of benzopyrone (I)): 3 h
- bioavailability at 48 h [6, 9]: 35%
SMILES: O=c1ccc2ccccc2o1 [benzopyrone, 5,6-benzo-alpha-pyrone]
- dialyzable amount of benzopyrone with increasing layer thickness ([3]; 20% formulation, cellulose membrane 20 kD, 2.5 cm^2): increases with increasing layer thickness until the saturation limit of the control membrane is reached and then remains constant
- accumulation in tissue (inflamed target tissues): preferably accumulates in inflamed target tissues
- active ingredient release over total application time ([4]; 96 h application): linear
- first pass metabolism in the liver ([2]; oral application): virtually quantitative
- unchanged benzopyrone entering the circulation from the liver ([2]; oral application): virtually no unchanged benzopyrone
- unabsorbed proportion of benzopyrone after 12 hours (rat skin; 1 g of 5% ointment over 30 cm^2, rat 1): 1.95 percent by weight
- unabsorbed proportion of benzopyrone after 12 hours (rat skin; 1 g of 5% ointment over 30 cm^2, rat 2): 13.24 percent by weight
- unabsorbed proportion of benzopyrone after 12 hours (rat skin; 1 g of 5% ointment over 30 cm^2, rat 3): 42.8 percent by weight
- kinetics of active ingredient diffusion through the membrane [7]: linear kinetics

SMILES: O=c1ccc2ccc(O)cc2o1 [7-hydroxybenzopyrone]
- glucuronidation step faster than preceding oxidation reaction ([2]; liver, coupled metabolic conversion): about 3.5 times
- decrease of blood levels of 7-hydroxybenzopyrone ([5]; after removal of the TDS): decreased rapidly
- blood levels of II, TDS lower than after oral dose ([6]; TDS versus oral): 6-10 times
- maximum blood concentrations of II, TDS versus oral, based on the same absorbed dose ([6]; TDS versus oral, same absorbed dose): approximately comparable
- blood levels of 7-hydroxybenzopyrone, oral compared with transdermal ([6]; oral versus transdermal): substantially higher

SMILES: CC1(C)C(C=C(Cl)Cl)C1C(=O)OC(C#N)c1cccc(Oc2ccccc2)c1 (centres unmarked) [cypermethrin]
- penetration of rat skin more readily than human skin [1]: 20 times
